Converted amounts (≈) assume the structure as drawn. Where two headings read alike, the source gives them in different places. Non-standard residues stand in square brackets, D forms with d. Residues, ends and D or L forms follow the SMILES beside them. No end group written: not given here. Ahx = NCCCCCC(=O)O
What was measured:
[1] = system: L929 murine fibroblast cells; format: cell-based, mouse; details: 2 h
Method: The cell line used for this approach was the mouse fibroblast L929. The cells were washed with saline solution, trypsinized, and incubated for 5 min at 37 °C with a 5% CO2 atmosphere. The fibroblast cell suspension was prepared at a concentration of 1 × 10^6 cells in 7 mL of RPMI medium supplemented with fetal bovine serum (the number of cells needed for one plate) and dispensed into 96-well plates. Then, 70 µL of cells was added per well and incubated overnight at 37 °C and 5% CO2. Dilutions of each peptide chimera (3.125–200 µg/mL) were formulated, and 50 µL of each were added to the plate in quadruplicate and incubated for 2 h at 37 °C and 5% CO2. Control wells consisted of untreated cell cultures. In addition, 10 µL of MTT was added to each of the wells, and the plate was incubated for 4 h at 37 °C with a 5% CO2 atmosphere. Following that, the total volume of each well was withdrawn, 100 µL of DMSO was added, and it was incubated for 40 min at 37 °C with 5% CO2.
Plates were read with an iMark™ microplate reader (Bio-rad, Hercules, CA, USA) measuring the absorbance at 595 nm. Wells of untreated fibroblast cells were considered to be the negative control.

[2] = system: C. neoformans var. grubii strains; format: cell-based, Cryptococcus neoformans var. grubii; details: 74 h
Method: (§1) The minimal fungicidal concentration (MFC) was evaluated after the yeast’s exposure to the chimeras (1.6 to 100 μg/mL), as described above. […] The MFC was defined as the lowest peptide concentration at which ≤1 colony was visible on the agar plate.

[3] = system: C. neoformans var. grubii strains; format: cell-based, Cryptococcus neoformans var. grubii; details: 72 h
Method: (§2) The in vitro susceptibility of chimeric, precursor peptides and FLC was evaluated by determining the minimal inhibitory concentration (MIC) on the basis of the broth microdilution method, according to document M27-A3 of the Clinical Laboratory Standards Institute (CLSI). It was diluted in RPMI-1640 medium (Sigma-Aldrich) at concentrations ranging from 1.6 to 100 μg/mL. The initial suspension (0.5 McFarland) was mixed into saline solution. Subsequently, a 1:50 dilution in saline solution and a 1:20 dilution in RPMI-1640 were tested (0.5–2.5 × 10^3 cells/mL). The negative control was the medium only without inoculum, and the positive control was the medium plus inoculum. The incubation time was 72 h at 30 °C at 110 rpm. The MIC values were determined by measuring the absorbance at 595 nm in a microplate reader and were defined as the lowest concentration of peptides capable of inhibiting growth equal to or higher than 50% in relation to the positive control. The MIC for fluconazole (FLC; 0.125–64 μg/mL; Pfizer, Brazil) was also determined according to M27-A3. The lowest concentration of the antifungal agent that was able to inhibit growth by 50% with respect to the positive control was considered the MIC.

[4] = system: C. neoformans 2807 clinical isolate; test: microbe, parasite or virus in culture; format: cell-based, Cryptococcus neoformans var. grubii; details: 72 h; for MICa (MIC of the chimeric peptide alone): 2807 clinical isolate
Method: (§3) The combined effect of FLC with the chimeric peptides was evaluated for the reference strain and one clinical isolate. The amounts of 50 µL of the chimeric peptide and 50 µL of antifungal (FLC) were added to the plates at final concentrations of: 2xMIC, MIC, 1/2xMIC, 1/4xMIC, 1/6xMIC, and 1/8xMIC. A yeast cell suspension was added at 0.5–2.5 × 10^3 cells/mL in 96-well plates. It was incubated for 72 h with shaking at 110 rpm and at 30 °C.
(§4) The effect of the combination of the two drugs was determined by calculating the fractional inhibitory concentration index (∑FIC), which was calculated as follows: ∑FIC = (MICcombined/MICalone) FLC + (MICcombined/MICalone) peptide.
(§5) FIC values ≤0.5 was considered as synergistic effect, 0.5 < FIC < 1 an additive effect, 1 < FIC < 4 indifference, and FIC ≥ 4 an antagonistic effect.

C. neoformans H99 = test: microbe, parasite or virus in culture; format: cell-based, Cryptococcus neoformans var. grubii; details: for MICa (MIC of the chimeric peptide alone): H99, 72 h
Method: as §3, §4, §5

[5] = system: C. neoformans var. grubii mutant CNAG_01580; test: MIC, broth microdilution (CLSI M27-A3); format: cell-based, Cryptococcus neoformans var. grubii; details: Cryptococcus neoformans, 72 h
Method: as §2

[6] = system: C. neoformans var. grubii mutant CNAG_04804; test: MIC, broth microdilution (CLSI M27-A3); format: cell-based, Cryptococcus neoformans var. grubii; details: Cryptococcus neoformans, 72 h
Method: as §2

[7] = system: C. neoformans var. grubii mutant CNAG_02050; test: MIC, broth microdilution (CLSI M27-A3); format: cell-based, Cryptococcus neoformans var. grubii; details: Cryptococcus neoformans, 72 h
Method: as §2

[8] = system: C. neoformans var. grubii mutant CNAG_02915; test: MIC, broth microdilution (CLSI M27-A3); format: cell-based, Cryptococcus neoformans var. grubii; details: Cryptococcus neoformans, 72 h
Method: as §2

[9] = system: C. neoformans var. grubii mutant CNAG_05150; test: MIC, broth microdilution (CLSI M27-A3); format: cell-based, Cryptococcus neoformans var. grubii; details: Cryptococcus neoformans, 72 h
Method: as §2

[10] = system: C. neoformans var. grubii mutant CNAG_06925; test: MIC, broth microdilution (CLSI M27-A3); format: cell-based, Cryptococcus neoformans var. grubii; details: Cryptococcus neoformans, 72 h
Method: as §2

[11] = system: C. neoformans var. grubii mutant CNAG_00730; test: MIC, broth microdilution (CLSI M27-A3); format: cell-based, Cryptococcus neoformans var. grubii; details: Cryptococcus neoformans, 72 h
Method: as §2

[12] = system: C. neoformans var. grubii mutant CNAG_04693; test: MIC, broth microdilution (CLSI M27-A3); format: cell-based, Cryptococcus neoformans var. grubii; details: Cryptococcus neoformans, 72 h
Method: as §2

[13] = system: C. neoformans var. grubii H99; test: Fluorescent staining for yeast viability (LIVE/DEAD, FUN1 and calcofluor white); format: cell-based, Cryptococcus neoformans var. grubii; details: 72 h
Method: Since the antifungal activity of the two chimeras was similar, it was decided to evaluate cell viability in the reference strain using one of the two chimeras by means of confocal microscopy. For this reason, the C6 chimera was evaluated in the H99 strain by staining with FUN1 and calcofluor white.
A commercial LIVE/DEAD™ yeast viability kit (Invitrogen, US) was used to analyze yeast viability after treatment with one of the chimeric peptides and FLC for 72 h at concentrations of 3.125, 6.25, 12.5, and 25 μg/mL and 4 and 8 μg/mL, respectively. In the dead control, the yeasts were treated with 5% hypochlorite for 10 min. Untreated yeast cells were used as a live control. Yeast cells were suspended in phosphate buffered saline (PBS). FUN-1 cell stains (10 μM) and calcofluor white (25 μM) were added to the yeast cell suspensions. After incubation in the dark at 30 °C for 30 min, the stained yeast was analyzed under a fluorescence microscope (Olympus FV1000) using filters set to excitation at approximately 488, 532, and 405 nm at 60× magnification. Fungal cell viability was determined by means of fluorescence analysis in at least 10 fields. Staining and interpretation of fluorescence were performed according to the manufacturer’s instructions.

[14] = system: C. neoformans var. grubii clinical isolate 2807; test: microbe, parasite or virus in culture; format: cell-based, Cryptococcus neoformans var. grubii
Method: as §2

[15] = system: C. neoformans var. grubii H99; test: microbe, parasite or virus in culture; format: cell-based, Cryptococcus neoformans var. grubii
Method: as §2

[16] = system: C. neoformans var. grubii clinical isolate 3279; test: microbe, parasite or virus in culture; format: cell-based, Cryptococcus neoformans var. grubii
Method: as §2

[17] = system: C. neoformans var. grubii clinical isolate 2643; test: microbe, parasite or virus in culture; format: cell-based, Cryptococcus neoformans var. grubii
Method: as §2

[18] = system: mutants of C. neoformans var. grubii; test: MIC, mutants (summary statements); format: cell-based, Cryptococcus neoformans var. grubii; details: all mutants
Method: as §2

[19] = system: C. neoformans var. grubii clinical isolate 2807; format: cell-based, Cryptococcus neoformans var. grubii; details: var. grubii clinical isolate 2807, 74 h
Method: as §1

[20] = system: C. neoformans var. grubii H99; format: cell-based, Cryptococcus neoformans var. grubii; details: var. grubii H99, 74 h
Method: as §1

[21] = system: normal human T lymphocytes, fibroblasts, and endothelial cells; details: LfcinB at 200 μg/mL; cited from earlier work
Description: One of the main concerns about the use of antimicrobial peptides in systemic treatments is their toxicity.

[22] = var. grubii clinical isolate 2807, 72 h

For `CC(C)C[C@H](NC(=O)[C@H](CC(C)C)NC(=O)[C@H](CCCCN)NC(=O)[C@H](CCCCN)NC(=O)[C@H](CC(C)C)NC(=O)[C@H](CC(C)C)NC(=O)[C@H](CCCCN)NC(=O)CCCCCNC(=O)[C@H](CCCNC(=N)N)NC(=O)[C@H](Cc1c[nH]c2ccccc12)NC(=O)[C@H](CCC(N)=O)NC(=O)[C@H](Cc1c[nH]c2ccccc12)NC(=O)[C@H](CCCNC(=N)N)NC(=O)[C@@H](N)CCCNC(=N)N)C(=O)N[C@@H](CCCCN)C(N)=O` [Chimera C5] (H-RRWQWR[Ahx]KLLKKLLK-NH2), the “IC50 (fibroblast viability)” value [1] was 93.35 µg/mL (≈ 45.2 µM), the MFC [2] was 12.5 µg/mL (≈ 6.05 µM) and the MIC [3] was 12.5 µg/mL (≈ 6.05 µM). For the same compound, the “MICa (MIC of the chimeric peptide alone)” value [4] was 12.5 µg/mL and the “MICa (MIC of the chimeric peptide alone)” value (C. neoformans H99) was 12.5 µg/mL.

In the case of `CC(C)C[C@H](NC(=O)[C@H](CC(C)C)NC(=O)[C@H](CCCNC(=N)N)NC(=O)[C@H](CCCNC(=N)N)NC(=O)[C@H](CC(C)C)NC(=O)[C@H](CC(C)C)NC(=O)[C@H](CCCNC(=N)N)NC(=O)CCCCCNC(=O)[C@H](CCCCN)NC(=O)[C@H](Cc1c[nH]c2ccccc12)NC(=O)[C@H](CCC(N)=O)NC(=O)[C@H](Cc1c[nH]c2ccccc12)NC(=O)[C@H](CCCCN)NC(=O)[C@@H](N)CCCCN)C(=O)N[C@@H](CCCNC(=N)N)C(N)=O` [Chimera C6] (H-KKWQWK[Ahx]RLLRRLLR-NH2), the “IC50 (fibroblast viability)” value [1] is reported as 67.44 µg/mL (≈ 32.2 µM), the MFC [2] is reported as 6.25 µg/mL (≈ 2.99 µM) and the MIC [3] is reported as 6.25 µg/mL (≈ 2.99 µM). The “MICa (MIC of the chimeric peptide alone)” value [4] was 6.25 µg/mL and the “MICa (MIC of the chimeric peptide alone)” value (C. neoformans H99) was 6.25 µg/mL.

With `OC(Cn1cncn1)(Cn1cncn1)c1ccc(F)cc1F` [FLC, fluconazole] the MIC [5] was 0.25 µg/mL (≈ 0.816 µM), the MIC [6] was 1 µg/mL (≈ 3.27 µM) and the MIC [7] was 1 µg/mL (≈ 3.27 µM). The MIC [8] was 1.5 µg/mL (≈ 4.9 µM), the MIC [9] was 2 µg/mL (≈ 6.53 µM) and the MIC [10] was 1 µg/mL (≈ 3.27 µM). For the same compound, the MIC [11] was 0.75 µg/mL (≈ 2.45 µM), the MIC [12] was 1 µg/mL (≈ 3.27 µM) and the “cell population versus live control” value ([13]; fluconazole 4 μg/mL (MIC)) was “a decrease in the cell population was observed”. It also gave a cell decrease ([13]; fluconazole 8 μg/mL) of over 80%, an MIC ([14]; Cryptococcus neoformans, clinical isolate 2807, broth microdilution RPMI-1640, 72 h, 30 °C, ≥50% inhibition, read-out: MIC) of 16 µg/mL and an MIC ([15]; Cryptococcus neoformans, H99 reference strain, broth microdilution RPMI-1640, 72 h, 30 °C, ≥50% inhibition (A595), read-out: MIC) of 4 µg/mL. The “susceptibility of the strain to FLC” value ([15]; H99 strain) was “sensitive”, the MIC ([16]; Cryptococcus neoformans, clinical isolate 3279, broth microdilution RPMI-1640, 72 h, 30 °C, ≥50% inhibition, read-out: MIC) was 16 µg/mL and the MIC ([17]; Cryptococcus neoformans, clinical isolate 2643, broth microdilution RPMI-1640, 72 h, 30 °C, ≥50% inhibition, read-out: MIC) was 8 µg/mL. The “susceptibility of the strains to FLC” value [18] was “sensitive”, the MIC ([4]; Cryptococcus neoformans, clinical isolate 2807, checkerboard, 30 °C, 110 rpm, read-out: MICb (MIC of FLC alone)) was 16 µg/mL and the MIC (C. neoformans H99; Cryptococcus neoformans, H99, checkerboard, 72 h, 30 °C, 110 rpm, read-out: MICb (MIC of FLC alone)) was 4 µg/mL.

Compound KKWQWK [[K]-LfcinB (20–25)] has an MFC [19] of 111 µM, an MFC [20] of 111 µM and an MIC [14, 22] of 111 µM. The MIC ([15]; var. grubii H99, 72 h) was 111 µM.

For KLLKKLLK [[K]-BFII (32–35)Pal], the MFC [19] was 114 µM, the MFC [20] was 114 µM and the MIC [14, 22] was 114 µM. It also gave an MIC ([15]; var. grubii H99, 72 h) of 114 µM.

For “LfcinB: bovine lactoferricin, antimicrobial peptide (FKCRRWQWRMKKLGAPSITCVRRAF; ends and bridges not checked; cysteine pairing not given here; UniProt P24627 36-60, looked up)”, the “toxicity for normal human cell cultures” value [21] is listed as “not toxic”.

RLLRRLLR [BFII (32–35)Pal] gave an MFC [19] of over 46 µM, an MFC [20] of over 46 µM and an MIC [14, 22] of over 46 µM. For the same compound, the MIC ([15]; var. grubii H99, 72 h) was over 46 µM, the MIC ([16]; var. grubii clinical isolate 3279, 72 h) was over 46 µM and the MIC ([17]; var. grubii clinical isolate 2643, 72 h) was over 46 µM.
